Measured values reported in BigSolDB 2.1.

NS(=O)(=O)Cc1noc2ccccc12
solubility (mole fraction)
Details | 278.15 K | 283.15 K | 288.15 K | 293.15 K | 298.15 K | 303.15 K | 308.15 K | 313.15 K | 318.15 K | 323.15 K
in DMF | 0.0292 | 0.0356 | 0.0428 | 0.0514 | 0.0612 | 0.0721 | 0.0852 | 0.101 | 0.118 | 0.136
in acetonitrile | 0.00682 | 0.00802 | 0.00937 | 0.0108 | 0.0124 | 0.0142 | 0.0162 | 0.0183 | 0.0207 | 0.0233
in ethanol | 0.00139 | 0.00162 | 0.00185 | 0.00215 | 0.00245 | 0.00279 | 0.00316 | 0.00356 | 0.004 | 0.00446
in isopropanol | 0.000797 | 0.000963 | 0.00115 | 0.00137 | 0.00163 | 0.00192 | 0.00226 | 0.00264 | 0.00306 | 0.00352
in water | 1.78e-05 | 2.5e-05 | 3.43e-05 | 4.67e-05 | 6.49e-05 | 8.56e-05 | 0.000112 | 0.00015 | 0.000196 | 0.000256
